From the NIST ThermoML archive (doi:10.1021/je060271a)

Conditions: 303.16 K, Liquid, Vibrating tube method

CCCC(=O)OCC(COC(=O)CCC)(COC(=O)CCC)COC(=O)CCC [pentaerythritol tetrabutyrate]
Conditions | mass density [kg/m3]
6790.5 kPa | 1046.6
6817.3 kPa | 1046.7
6849.6 kPa | 1046.6
6876.7 kPa | 1046.6
6909 kPa | 1046.7
6936.8 kPa | 1046.6
6965.3 kPa | 1046.7
6993.5 kPa | 1046.7
7274.1 kPa | 1047
7311.4 kPa | 1046.9
7343 kPa | 1046.9
7374.1 kPa | 1046.9
7412.9 kPa | 1047
7446.2 kPa | 1047
7479.9 kPa | 1047.1
7515.1 kPa | 1047
7541.7 kPa | 1047.1
7566.7 kPa | 1047.1
7596.6 kPa | 1047.2
7622.5 kPa | 1047.1
7647.8 kPa | 1047.1
7673.7 kPa | 1047.1
7703.6 kPa | 1047.1
7729.5 kPa | 1047.2
7755.5 kPa | 1047.2
7786.9 kPa | 1047.3
7813.7 kPa | 1047.3
7840.6 kPa | 1047.2
7867.9 kPa | 1047.3
7895 kPa | 1047.2
7927.7 kPa | 1047.2
7955 kPa | 1047.3
7982.8 kPa | 1047.3
8016.1 kPa | 1047.4
8044.7 kPa | 1047.3
8073.5 kPa | 1047.3
8102.7 kPa | 1047.4
8125 kPa | 1047.5
8147.9 kPa | 1047.5
8175.2 kPa | 1047.5
8198.5 kPa | 1047.5
8222.3 kPa | 1047.4
8245.7 kPa | 1047.6
8273.3 kPa | 1047.4
8297.3 kPa | 1047.5
8325.9 kPa | 1047.5
8350.8 kPa | 1047.6
8373.4 kPa | 1047.6
8504.8 kPa | 1047.7
8527.9 kPa | 1047.7
8547 kPa | 1047.6
8565.8 kPa | 1047.7
8588.8 kPa | 1047.8
8607.6 kPa | 1047.8
8630.3 kPa | 1047.7
8649.3 kPa | 1047.8
8672.8 kPa | 1047.8
8693.1 kPa | 1047.8
8716 kPa | 1047.9
8735.5 kPa | 1047.8
8759.5 kPa | 1047.9
8783.6 kPa | 1047.9
8803.1 kPa | 1047.9
8823.4 kPa | 1047.9
8847.6 kPa | 1047.9
8867.8 kPa | 1048
8892.1 kPa | 1047.9
8916.2 kPa | 1047.9
8936.4 kPa | 1047.9
8960.7 kPa | 1048
8981.7 kPa | 1047.9
9006.9 kPa | 1047.9
9027.7 kPa | 1048
9053.1 kPa | 1047.9
9078.7 kPa | 1048.1
9099.8 kPa | 1048
9121 kPa | 1048.1
9146.6 kPa | 1048
9172.2 kPa | 1048.1
9193.2 kPa | 1048.1
9244.7 kPa | 1048.2
9266.6 kPa | 1048.2
9293.3 kPa | 1048.3
9315.9 kPa | 1048.3
9343.1 kPa | 1048.2
9366.4 kPa | 1048.3
9391.5 kPa | 1048.3
9419 kPa | 1048.4
9442.1 kPa | 1048.2
9469.3 kPa | 1048.3
9492.3 kPa | 1048.3
9519.7 kPa | 1048.4
9547.7 kPa | 1048.4
9571.3 kPa | 1048.5
9599.9 kPa | 1048.3
9623.9 kPa | 1048.5
9652 kPa | 1048.3
9680.6 kPa | 1048.5
9705 kPa | 1048.4
9730.4 kPa | 1048.5
9759.3 kPa | 1048.5
9783.6 kPa | 1048.5
9812.9 kPa | 1048.6
9843 kPa | 1048.5
9868 kPa | 1048.4
9898.3 kPa | 1048.5
9923.1 kPa | 1048.5
9953.2 kPa | 1048.6
9984.1 kPa | 1048.6
10010 kPa | 1048.7
10041 kPa | 1048.7
10067 kPa | 1048.7
10100 kPa | 1048.8
10126 kPa | 1048.6
10159 kPa | 1048.7
10186 kPa | 1048.8
10218 kPa | 1048.7
10245 kPa | 1048.7
10278 kPa | 1048.8
10305 kPa | 1048.7
10337 kPa | 1048.9
10371 kPa | 1048.7
10399 kPa | 1048.8
10432 kPa | 1048.9
10461 kPa | 1048.9
10496 kPa | 1048.9
10525 kPa | 1048.8
10560 kPa | 1048.9
10589 kPa | 1049
10624 kPa | 1049
10658 kPa | 1049.1
10687 kPa | 1049
10723 kPa | 1049.1
10753 kPa | 1049
10789 kPa | 1049.2
10820 kPa | 1049.1
10857 kPa | 1049.1
10894 kPa | 1049.1
10924 kPa | 1049.2
10961 kPa | 1049.3
10993 kPa | 1049.2
11031 kPa | 1049.3
11063 kPa | 1049.3
11101 kPa | 1049.3
11133 kPa | 1049.4
11171 kPa | 1049.3
